What all share (assay type): in vivo
The test system of assay [1] is ducksalad (Heteranthera limosa). The assay is described as follows: Test B flooded paddy test. The conditions noted are these: Heteranthera limosa, 250 g ai/ha, Flood. Summed up:
(§1)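 Response scored visually against untreated controls, 0 = no effect and 100 = complete control, 13–15 d after treatment in the greenhouse. Compounds added to paddy water held 3 cm above soil surface. Treatment given at 2-leaf stage.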

A further assay relates to rice (Oryra sativa). The assay is described as follows: Test B flooded paddy test. The following applies: Oryza sativa, 250 g ai/ha, Flood. The gist of the method: as §1
The subject of assay [2] is sedge, umbrella (small-flower umbrella sedge, Cyperus difformis). The assay is described as follows: Test B flooded paddy test. The following applies: Cyperus difformis, 250 g ai/ha, Flood. Summed up: as §1
Assay [3] has as its system barnyardgrass (Echinochloa crus-galli). The assay is described as follows: Test B flooded paddy test. The conditions noted are these: Echinochloa crus-galli, 250 g ai/ha, Flood. The gist of the method:
as §1

The test system is the same in assay [4]. As to the kind of experiment: Test A preemergence. The conditions noted are these: Echinochloa crus-galli, pre-emergence, 240 h; for pest or weed control at 125 g/ha: 125 g ai/ha; for pest or weed control at 500 g/ha: 500 g ai/ha. Summed up: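 Visual injury scores from 0, no effect, to 100, complete control, were assigned versus untreated controls roughly 10 d after treatment in the greenhouse. Test chemicals, formulated with surfactant in a non-phytotoxic solvent, were applied to planted seeds as a preemergence soil spray or postemergence to one- to two-leaf plants 2 to 10 cm tall, in loam–sand soil.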

Setting [5] is: 0 to 100 scale where 0 is no effect and 100 is complete control, read-out: Ducksalad plant response rating.
[6] abbreviates: 0 to 100 scale where 0 is no effect and 100 is complete control, read-out: Rice plant response rating.
[7] abbreviates: 0 to 100 scale where 0 is no effect and 100 is complete control, read-out: Sedge, Umbrella plant response rating.
Setting [8] is: 0 to 100 scale where 0 is no effect and 100 is complete control, read-out: Barnyardgrass plant response rating.
Setting [9] is: preemergence, visual injury rating, 0 to 100 scale where 0 is no effect and 100 is complete control, approximately 10 d, read-out: Barnyardgrass plant response rating.
Setting [10] is: preemergence, 0 to 100 scale where 0 is no effect and 100 is complete control, read-out: Barnyardgrass plant response rating.
The mark [11] stands for this setting: scale of 0 to 100 where 0 is no effect and 100 is complete control, read-out: Ducksalad plant response rating.
Where [12] appears, read: scale of 0 to 100 where 0 is no effect and 100 is complete control, read-out: Rice plant response rating.
[13] abbreviates: scale of 0 to 100 where 0 is no effect and 100 is complete control, read-out: Sedge, Umbrella plant response rating.
The mark [14] stands for this setting: scale of 0 to 100 where 0 is no effect and 100 is complete control, read-out: Barnyardgrass plant response rating.
The mark [15] stands for this setting: preemergence, visual rating after approx. 10 d, 0 to 100 scale where 0 is no effect and 100 is complete control, read-out: Plant response rating, Barnyardgrass.
The mark [16] stands for this setting: Preemergence, visual injury vs untreated controls after approximately 10 d, read-out: Barnyardgrass plant response rating (0 to 100 scale where 0 is no effect and 100 is complete control).
The mark [17] stands for this setting: 360 h, visually evaluated after 13 to 15 d, read-out: Plant response rating, Sedge, Umbrella (0 to 100 scale where 0 is no effect and 100 is complete control).
[18] abbreviates: Preemergence, 0 to 100 scale (0 no effect, 100 complete control), read-out: Plant response rating, Barnyardgrass.
[19] abbreviates: 360 h, visually evaluated after 13 to 15 d, read-out: Plant response rating, Ducksalad (0 to 100 scale where 0 is no effect and 100 is complete control).
Where [20] appears, read: 360 h, visually evaluated after 13 to 15 d, read-out: Plant response rating, Rice (0 to 100 scale where 0 is no effect and 100 is complete control).
Where [21] appears, read: 360 h, visually evaluated after 13 to 15 d, read-out: Plant response rating, Barnyardgrass (0 to 100 scale where 0 is no effect and 100 is complete control).
The mark [22] stands for this setting: preemergence, 0 to 100 scale (0 no effect, 100 complete control), read-out: Plant response rating, Barnyardgrass.
[23] abbreviates: preemergence, 0 to 100 scale, 0 = no effect, 100 = complete control, read-out: Plant response rating, Barnyardgrass.

Like-named read-outs stand apart in the source and are kept apart here.

On to `O=C1NC[C@H](c2ccc(C(F)(F)F)cc2)C1C(=O)Nc1ccccc1CO` (stereo partly drawn) [Compound 1242], for which the pest or weed control at 250 g/ha in assay [1] (setting [5]) worked out at 75%; in the assay on rice (Oryra sativa) (setting [6]) it was 0%; in assay [2] (setting [7]), 0%; in assay [3] (setting [8]), 0%. Also, the pest or weed control at 125 g/ha in assay [4] (setting [9]) came to 20%. The pest or weed control at 500 g/ha in assay [4] (setting [10]) turned out to be 60%.
In the case of `CN1C[C@H](c2cc(F)cc(F)c2)[C@@H](C(=O)Nc2ncccc2F)C1=O` [Compound 783], the pest or weed control at 250 g/ha (in assay [1] (setting [11]); with rice (Oryra sativa) (setting [12]); in assay [2] (setting [13]); in assay [3] (setting [14])) was 0% each time. Further, the pest or weed control at 125 g/ha in assay [4] (setting [15]) is 0%. Moreover, in assay [4] (setting [16]), the pest or weed control at 500 g/ha was found to be 70%.
With `CN1C[C@H](c2cccc(C(C)(F)F)c2)[C@@H](C(=O)Nc2cccc(F)c2F)C1=O` [Compound 1316], the pest or weed control at 250 g/ha in assay [1] (setting [5]) was determined as 90%; with rice (Oryra sativa) (setting [6]), 0%; in assay [2] (setting [17]), 0%; in assay [3] (setting [8]) it was 75%. For the same molecule, in assay [4] (setting [10]), the pest or weed control at 500 g/ha was found to be 90%. For the same molecule, the pest or weed control at 125 g/ha in assay [4] (setting [18]) amounted to 90%.
With `CC(C)c1cccc([C@H]2CN(C)C(=O)[C@@H]2C(=O)Nc2cccc(F)c2F)c1` [Compound 1388], the pest or weed control at 250 g/ha stood at 80% in assay [1] (setting [19]), 0% in the assay with rice (Oryra sativa) (setting [20]), 0% in assay [2] (setting [17]) and 65% in assay [3] (setting [21]). Moreover, the pest or weed control at 500 g/ha in assay [4] (setting [22]) is 100%. For the same molecule, the pest or weed control at 125 g/ha in assay [4] (setting [18]) was 100%.
Consider `CN1C[C@H](c2ccc3c(c2)OC(F)(F)O3)[C@@H](C(=O)Nc2ccc(F)c(F)c2F)C1=O` [Compound 1204], for which the pest or weed control at 250 g/ha in assay [1] (setting [5]) was determined as 100%; with rice (Oryra sativa) (setting [6]), 0%; in assay [2] (setting [7]), 0%; in assay [3] (setting [8]), 70%. Moreover, in assay [4] (setting [9]), the pest or weed control at 125 g/ha stood at 90%. The pest or weed control at 500 g/ha in assay [4] (setting [10]) came out at 90%.
With `C=CCN1C[C@H](c2ccc(OC)c(F)c2)[C@@H](C(=O)Nc2cccc(F)c2F)C1=O` [Compound 722], the pest or weed control at 250 g/ha (in assay [1] (setting [11]); in the assay with rice (Oryra sativa) (setting [12]); in assay [2] (setting [13]); in assay [3] (setting [14])) was 0% each time. Besides, in assay [4] (setting [15]), the pest or weed control at 125 g/ha was determined as 20%. For the same molecule, the pest or weed control at 500 g/ha in assay [4] (setting [23]) was 80%.
Regarding `CC(F)(F)c1cccc([C@H]2CNC(=O)[C@@H]2C(=O)Nc2ccccc2S(C)(=O)=O)c1` [Compound 780], the pest or weed control at 250 g/ha in assay [1] (setting [11]) stood at 90%; in the assay on rice (Oryra sativa) (setting [12]), 0%; in assay [2] (setting [13]) it was 0%; in assay [3] (setting [14]), 20%. For the same molecule, in assay [4] (setting [15]), the pest or weed control at 125 g/ha is 80%. Besides, the pest or weed control at 500 g/ha in assay [4] (setting [16]) stood at 90%.
For `CSc1ccccc1NC(=O)[C@H]1C(=O)NC[C@@H]1c1ccc2c(c1)OCO2` [Compound 1257], the pest or weed control at 250 g/ha in assay [1] (setting [5]) was 0%; with rice (Oryra sativa) (setting [6]), 0%; in assay [2] (setting [7]) it was 0%; in assay [3] (setting [8]), 20%. Also, the pest or weed control at 125 g/ha in assay [4] (setting [9]) worked out at 0%. In addition, in assay [4] (setting [10]), the pest or weed control at 500 g/ha was found to be 0%.
As to `CN1C[C@H](c2ccc(C(F)(F)F)cc2)[C@@H](C(=O)Nc2ccc(F)c(F)c2F)C1=O` [Compound 745], the pest or weed control at 250 g/ha in assay [1] (setting [11]) turned out to be 100%; with rice (Oryra sativa) (setting [12]), 40%; in assay [2] (setting [13]), 0%; in assay [3] (setting [14]), 70%. The pest or weed control at 125 g/ha in assay [4] (setting [15]) turned out to be 90%. The pest or weed control at 500 g/ha in assay [4] (setting [23]) was 90%.
`Cc1cc([C@H]2CNC(=O)[C@@H]2C(=O)Nc2ccccc2F)ccc1F` [Compound 717]: the pest or weed control at 250 g/ha in assay [1] (setting [11]) is 100%; with rice (Oryra sativa) (setting [12]), 0%; in assay [2] (setting [13]), 0%; in assay [3] (setting [14]), 60%. Besides, in assay [4] (setting [15]), the pest or weed control at 125 g/ha was 90%. Also, in assay [4] (setting [23]), the pest or weed control at 500 g/ha turned out to be 90%.
Regarding `CS(=O)(=O)c1ccccc1NC(=O)[C@H]1C(=O)NC[C@@H]1c1cccc2c1OC(F)(F)O2` [Compound 753], the pest or weed control at 250 g/ha in assay [1] (setting [11]) amounted to 60%; in the assay on rice (Oryra sativa) (setting [12]) it was 0%; in assay [2] (setting [13]), 0%; in assay [3] (setting [14]) it was 0%. In addition, the pest or weed control at 125 g/ha in assay [4] (setting [15]) turned out to be 70%. In addition, the pest or weed control at 500 g/ha in assay [4] (setting [23]) came out at 100%.
With `C=CN1C[C@H](c2ccc(C)c(F)c2)[C@@H](C(=O)Nc2cccc(F)c2F)C1=O` (racemic) [Compound 1332], the pest or weed control at 250 g/ha in assay [1] (setting [19]) came out at 100%; in the assay with rice (Oryra sativa) (setting [20]), 0%; in assay [2] (setting [17]), 0%; in assay [3] (setting [21]) it was 0%. Moreover, the pest or weed control at 500 g/ha in assay [4] (setting [22]) turned out to be 90%. The pest or weed control at 125 g/ha in assay [4] (setting [18]) was determined as 70%.
For the molecule `CN1C[C@H](c2cccc(C(C)(F)F)c2)[C@@H](C(=O)Nc2ccccc2S(C)(=O)=O)C1=O` [Compound 1318], the pest or weed control at 250 g/ha in assay [1] (setting [5]) came out at 85%; with rice (Oryra sativa) (setting [6]), 0%; in assay [2] (setting [17]), 0%; in assay [3] (setting [8]), 65%. In assay [4] (setting [10]), the pest or weed control at 500 g/ha came to 90%. The pest or weed control at 125 g/ha in assay [4] (setting [18]) was found to be 90%.
For `Cc1cc([C@H]2CNC(=O)[C@@H]2C(=O)Nc2ccccc2F)ccc1Cl` [Compound 789], the pest or weed control at 250 g/ha in assay [1] (setting [11]) turned out to be 100%; in the assay on rice (Oryra sativa) (setting [12]), 0%; in assay [2] (setting [13]), 0%; in assay [3] (setting [14]) it was 20%. Further, the pest or weed control at 125 g/ha in assay [4] (setting [15]) worked out at 90%. Further, in assay [4] (setting [16]), the pest or weed control at 500 g/ha turned out to be 90%.
As to `CN1C[C@H](c2cccc(C(C)(F)F)c2)[C@@H](C(=O)Nc2ccccc2F)C1=O` [Compound 1317], the pest or weed control at 250 g/ha in assay [1] (setting [5]) turned out to be 100%; with rice (Oryra sativa) (setting [6]) it was 0%; in assay [2] (setting [17]), 0%; in assay [3] (setting [8]), 85%. Besides, the pest or weed control at 500 g/ha in assay [4] (setting [10]) came to 90%. In addition, the pest or weed control at 125 g/ha in assay [4] (setting [18]) was determined as 90%.
On to `Cc1ccc([C@H]2CNC(=O)[C@@H]2C(=O)Nc2cccc(F)c2F)s1` [Compound 729], for which the pest or weed control at 250 g/ha turned out to be 100% in assay [1] (setting [11]), 0% with rice (Oryra sativa) (setting [12]), 0% in assay [2] (setting [13]) and 60% in assay [3] (setting [14]). Further, in assay [4] (setting [15]), the pest or weed control at 125 g/ha worked out at 0%. Also, the pest or weed control at 500 g/ha in assay [4] (setting [23]) amounted to 0%.
On to `Cc1c(F)ccc([C@H]2CNC(=O)[C@@H]2C(=O)Nc2cccc(F)c2F)c1F` [Compound 1327], for which the pest or weed control at 250 g/ha in assay [1] (setting [5]) was 100%; in the assay on rice (Oryra sativa) (setting [6]), 0%; in assay [2] (setting [17]), 0%; in assay [3] (setting [8]) it was 30%. In addition, the pest or weed control at 500 g/ha in assay [4] (setting [22]) stood at 90%. Besides, the pest or weed control at 125 g/ha in assay [4] (setting [18]) turned out to be 90%.

The values above are taken from US12077503B2, “Substituted cyclic amides and their use as herbicides” (FMC CORPORATION, priority 2015, dated 2024).
